pIC50: −log10 of the molar value.
What follows are compounds tested against T1, human LPA1 (Homo sapiens, UniProt Q92633) (assay: LPA1 functional antagonist assay (calcium flux)). Details: CHO cells overexpressing human LPA1; inhibition of calcium flux induced by 10 nM LPA; read-out: hLPA1 IC50.
T1 construct: expressed in transfected cells; host or cells: Chinese hamster ovary (CHO) cells
Type: cell-based
Method in brief: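 IC50 values come from 4-parameter logistic fits and mark 50% block of the calcium flux evoked by 10 nM LPA. Human LPA1-overexpressing CHO cells were calcium-dye loaded at 37 °C, then given test compound (0.08 nM–5 μM, 0.5% DMSO, HEPES-buffered HBSS with 0.1% fatty-acid-free BSA) for 20 min at room temperature before agonist.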

T1 sequence (Q92633 whole entry): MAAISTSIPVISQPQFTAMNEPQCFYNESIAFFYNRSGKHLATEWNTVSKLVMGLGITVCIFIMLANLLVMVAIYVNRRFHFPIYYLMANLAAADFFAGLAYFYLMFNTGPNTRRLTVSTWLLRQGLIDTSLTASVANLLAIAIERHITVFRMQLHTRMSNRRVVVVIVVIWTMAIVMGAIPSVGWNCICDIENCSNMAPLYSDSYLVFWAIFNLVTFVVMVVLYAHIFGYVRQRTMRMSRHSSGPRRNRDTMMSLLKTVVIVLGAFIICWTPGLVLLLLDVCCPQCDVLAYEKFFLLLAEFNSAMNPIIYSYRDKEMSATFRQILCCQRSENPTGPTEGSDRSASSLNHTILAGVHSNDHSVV

| Structure (SMILES) | pIC50 |
| --- | --- |
| CCOc1ccnc(Nc2c(-c3ccc(O[C@H]4CCC[C@H](C(=O)O)C4)c(C)n3)nnn2C)n1 [Example 229, (1S,3S)-3-((6-(5-((4-ethoxypyrimidin-2-yl)amino)-1-methyl-1H-1,2,3-triazol-4-yl)-2-methylpyridin-3-yl)oxy)cyclohexane-1-carboxylic acid] | 6.78 |
| Cc1nc(-c2nnn(C)c2Nc2nccc(OCC3CC3)n2)ccc1O[C@H]1CCC[C@H](C(=O)O)C1 [Example 232, (1S,3S)-3-((6-(5-((4-(cyclopropyl-methoxy)pyrimidin-2-yl)amino)-1-methyl-1H-1,2,3-triazol-4-yl)-2-methylpyridin-3-yl)oxy)cyclohexane-1-carboxylic acid] | 7.19 |
| Cc1nc(-c2nnn(C)c2Nc2ccnc(OCC3CC3)n2)ccc1O[C@H]1CCC[C@H](C(=O)O)C1 [Example 233, (1S,3S)-3-((6-(5-((2-(cyclopropyl-methoxy)pyrimidin-4-yl)amino)-1-methyl-1H-1,2,3-triazol-4-yl)-2-methylpyridin-3-yl)oxy)cyclohexane-1-carboxylic acid] | 6.41 |
| Cc1nc(-c2nnn(C)c2Nc2cc(C3CC3)ccn2)ccc1O[C@H]1CCC[C@H](C(=O)O)C1 [Example 234, (1S,3S)-3-((6-(5-((4-cyclopropyl-pyridin-2-yl)amino)-1-methyl-1H-1,2,3-triazol-4-yl)-2-methylpyridin-3-yl)oxy)cyclohexane-1-carboxylic acid] | 7.06 |
| Cc1nc(-c2nnn(C)c2Nc2cccc(OCc3ccccc3)n2)ccc1O[C@H]1CCC[C@H](C(=O)O)C1 [Example 237, (1S,3S)-3-((6-(5-((6-(benzyloxy)pyridin-2-yl)amino)-1-methyl-1H-1,2,3-triazol-4-yl)-2-methylpyridin-3-yl)oxy)cyclohexane-1-carboxylic acid] | 7.26 |
| CCCOc1nccc(Nc2c(-c3ccc(O[C@H]4CCC[C@H](C(=O)O)C4)c(C)n3)nnn2C)n1 [Example 238, (1S,3S)-3-((2-methyl-6-(1-methyl-5-((2-propoxypyrimidin-4-yl)amino)-1H-1,2,3-triazol-4-yl)pyridin-3-yl)oxy)cyclohexane-1-carboxylic acid] | 7.28 |
| CCOc1cccc(Nc2c(-c3ccc(O[C@H]4CCC[C@H](C(=O)O)C4)c(C)n3)nnn2C)n1 [Example 240, (1S,3S)-3-((6-(5-((6-ethoxypyridin-2-yl)amino)-1-methyl-1H-1,2,3-triazol-4-yl)-2-methylpyridin-3-yl)oxy) cyclohexane-1-carboxylic acid] | 7.24 |
| Cc1nc(-c2nnn(C)c2Nc2nccc(C(C)C)n2)ccc1O[C@H]1CCC[C@H](C(=O)O)C1 [Example 241, (1S,3S)-3-((6-(5-((4-isopropyl-pyrimidin-2-yl)amino)-1-methyl-1H-1,2,3-triazol-4-yl)-2-methylpyridin-3-yl)oxy)cyclohexane-1-carboxylic acid] | 7.18 |
| Cn1nnc(-c2ccc(O[C@H]3CCC[C@H](C(=O)O)C3)cn2)c1Nc1nccc(OCC2CC2)n1 [Example 243, (1S,3S)-3-((6-(5-((4-(cyclopropyl-methoxy)pyrimidin-2-yl)amino)-1-methyl-1H-1,2,3-triazol-4-yl)pyridin-3-yl)oxy)cyclohexane-1-carboxylic acid] | 6.91 |
| CCCOc1ccnc(Nc2c(-c3ccc(O[C@H]4CCC[C@H](C(=O)O)C4)cn3)nnn2C)n1 [Example 246, (1S,3S)-3-((6-(1-methyl-5-((4-propoxypyrimidin-2-yl)amino)-1H-1,2,3-triazol-4-yl)pyridin-3-yl)oxy) cyclohexane-1-carboxylic acid] | 6.65 |
| CCCc1ccnc(Nc2c(-c3ccc(O[C@H]4CCC[C@H](C(=O)O)C4)cn3)nnn2C)n1 [Example 247, (1S,3S)-3-((6-(1-methyl-5-((4-propylpyrimidin-2-yl)amino)-1H-1,2,3-triazol-4-yl)pyridin-3-yl)oxy) cyclohexane-1-carboxylic acid] | 6.50 |
| CCOc1cccc(Nc2c(-c3ccc(O[C@H]4CCC[C@H](C(=O)O)C4)cn3)nnn2C)n1 [Example 248, (1S,3S)-3-((6-(5-((6-ethoxypyridin-2-yl)amino)-1-methyl-1H-1,2,3-triazol-4-yl)pyridin-3-yl)oxy)cyclohexane-1-carboxylic acid] | 6.95 |
| Cc1nc(-c2nnn(C)c2COc2ncc(F)c(NC(C)C)n2)ccc1O[C@H]1CCC[C@H](C(=O)O)C1 [Example 252, (1S,3S)-3-((6-(5-(((5-fluoro-4-(isopropylamino)pyrimidin-2-yl)oxy)methyl)-1-methyl-1H-1,2,3-triazol-4-yl)-2-methylpyridin-3-yl)oxy)cyclohexane-1-carboxylic acid] | 7.19 |

Now those with a higher pIC50, led by results:

| pIC50 | Structure (SMILES) |
| --- | --- |
| 7.96 | CCCc1cccc(Nc2c(-c3ccc(O[C@H]4CCC[C@H](C(=O)O)C4)c(C)n3)nnn2C)n1 [Example 230, (1S,3S)-3-((2-methyl-6-(1-methyl-5-((6-propylpyridin-2-yl)amino)-1H-1,2,3-triazol-4-yl)pyridin-3-yl)oxy) cyclohexane-1-carboxylic acid] |
| 7.68 | Cc1nc(-c2nnn(C)c2Nc2cccc(C3CC3)n2)ccc1O[C@H]1CCC[C@H](C(=O)O)C1 [Example 231, (1S,3S)-3-((6-(5-((6-cyclopropyl-pyridin-2-yl)amino)-1-methyl-1H-1,2,3-triazol-4-yl)-2-methylpyridin-3-yl)oxy)cyclohexane-1-carboxylic acid] |
| 7.64 | CCCc1ccnc(Nc2c(-c3ccc(O[C@H]4CCC[C@H](C(=O)O)C4)c(C)n3)nnn2C)n1 [Example 235, (1S,3S)-3-((2-methyl-6-(1-methyl-5-((4-propylpyrimidin-2-yl)amino)-1H-1,2,3-triazol-4-yl)pyridin-3-yl)oxy) cyclohexane-1-carboxylic acid] |
| 8.00 | CCCCc1cccc(Nc2c(-c3ccc(O[C@H]4CCC[C@H](C(=O)O)C4)c(C)n3)nnn2C)n1 [Example 236, (1S,3S)-3-((6-(5-((6-butylpyridin-2-yl)amino)-1-methyl-1H-1,2,3-triazol-4-yl)-2-methylpyridin-3-yl)oxy)cyclohexane-1-carboxylic acid] |
| 7.30 | CCCOc1ccnc(Nc2c(-c3ccc(O[C@H]4CCC[C@H](C(=O)O)C4)c(C)n3)nnn2C)n1 [Example 239, (1S,3S)-3-((2-methyl-6-(1-methyl-5-((4-propoxypyrimidin-2-yl)amino)-1H-1,2,3-triazol-4-yl)pyridin-3-yl)oxy) cyclohexane-1-carboxylic acid] |
| 7.96 | CCCOc1cccc(Nc2c(-c3ccc(O[C@H]4CCC[C@H](C(=O)O)C4)c(C)n3)nnn2C)n1 [Example 242, (1S,3S)-3-((2-methyl-6-(1-methyl-5-((6-propoxypyridin-2-yl)amino)-1H-1,2,3-triazol-4-yl)pyridin-3-yl)oxy) cyclohexane-1-carboxylic acid] |
| 7.37 | CCCc1cccc(Nc2c(-c3ccc(O[C@H]4CCC[C@H](C(=O)O)C4)cn3)nnn2C)n1 [Example 244, (1S,3S)-3-((6-(1-methyl-5-((6-propylpyridin-2-yl)amino)-1H-1,2,3-triazol-4-yl)pyridin-3-yl)oxy) cyclohexane-1-carboxylic acid] |
| 7.49 | CCCCc1cccc(Nc2c(-c3ccc(O[C@H]4CCC[C@H](C(=O)O)C4)cn3)nnn2C)n1 [Example 245, (1S,3S)-3-((6-(5-((6-butylpyridin-2-yl)amino)-1-methyl-1H-1,2,3-triazol-4-yl)pyridin-3-yl)oxy)cyclohexane-1-carboxylic acid] |
